# In patent publication US20040242886A1, “Monocyclic diazodioxide based Bcl-2 protein antagonists related applications” (priority 2003, published 2004):
# Like-named read-outs stand apart in the source and are kept apart here.
# What was measured:
# [1] = system: Bcl-2 and Bcl XL; conditions: literature value, cited from earlier work
# [2] = system: A549 human lung cells expressing low Bcl-2 and high Bcl-XL levels; assay: Acute cytotoxicity (apoptotic activity), Alamar Blue viability, A549 cells; format: cell-based; conditions: Homo sapiens, A549, 4 h; read-out: LC 50 (μM) A549
# Protocol: (§1) The biological activity of the compounds provided herein were assessed in cellular system by the method similar to the one described by Amundson et al. (Amundson, S. A. et al, Cancer Research 2000, 60, 6101-6110), which is incorporated herein by reference in its entirety. The compounds were tested for acute cytotoxicity (apoptotic activity) using two human cancer cell lines expressing high levels of either Bcl-2 or BCl-XL. HL60, human leukemic cells expressing high Bcl-2 and low BCl-XL levels, and A549 human lung cells expressing low Bcl-2 and high BCl-XL levels, were incubated with the compounds at concentrations between 0.5 and 1000 μg/mL for 4 hours at 37° C., 5% CO2. The number of viable cells were measured by mitochondrial transformation of Alamar Blue to a fluorescent dye. LC50 values for each test compound and controls are provided in the individual examples that follow.
# (§2) The compounds provided herein were tested for acute cytoxicity (apoptotic activity) using two human cancer cell lines expressing high levels of either Bcl-2 or BCl-XL. HL-60 cells expressing high Bcl-2 and low Bcl-XL levels, and A549 human lung cells expressing low Bcl-2 and high Bcl-XL levels were incubated with the compounds provided herein at concentrations between 0.5 and 1000 μg/mL for 4 hours at 37° C., 5% CO2. The number of viable cells were measured by mitochondrial transformation of Alamar Blue to a fluorescent dye. As negative controls, the compounds were tested against the cell lines with low levels of Bcl-2 expression, viz., MDA-453 cells. LC50 values for each compound and controls were determined.
# [3] = system: HL60, human leukemic cells expressing high Bcl-2 and low Bcl-XL levels; assay: Acute cytotoxicity (apoptotic activity), Alamar Blue viability, HL-60 cells; format: cell-based; conditions: Homo sapiens, HL-60, 4 h; read-out: LC 50 (μM) HL-60
# Protocol: as §1, §2
# [4] = system: cell; conditions: cited from earlier work
compound,measurement,setting,value
CC(C)Cc1cc(-c2ccc(-c3ccc(OCC(=O)O)c(CC(C)C)c3)c(Cc3cccc4ccccc34)c2)ccc1CCC(=O)O [compound 7],IC50,[1]; Bcl-2 antagonist,0.114 µM
"O=C(Nc1cc(S(=O)(=O)c2ccc(Cl)cc2)ccc1Cl)c1cc(Cl)cc(I)c1O [compound 6, reference compound]",CC50,[2],> 200 µM
same,CC50,[3],< 50 µM
same,IC50,[1]; protein not specified,3.3 µM
same,CC50,"[4]; read-out: LC50 (cell), cell line not specified, literature value",~30 µM
Cc1cc2c(C(C)C)c(O)c(O)c(C=O)c2c(O)c1-c1c(C)cc2c(C(C)C)c(O)c(O)c(C=O)c2c1O [compound 1],CC50,[4],1.5 µM
